Data from paper PMC11684029, “Discovery of VU6024578/BI02982816: An mGlu1 Positive Allosteric Modulator with Efficacy in Preclinical Antipsychotic and Cognition Models” (Journal of Medicinal Chemistry, 2024).

Key:
[1] = molecular target: rat mGlu1 (Rattus norvegicus, UniProt P23385); assay: mGlu1 calcium mobilization PAM assay; format: cell-based
[2] = system: human mGlu2–5,7,8; assay: mGlu subtype selectivity; format: cell-based
Procedure: (§1) Over the course of the mGlu1 PAM program, 19d became an assay standard and was assayed multiple times, affording refined potency values.[20]

[3] = system: rat mGlu2–5,7,8; assay: mGlu subtype selectivity; format: cell-based; conditions: inactive
Procedure: as §1

[4] = hydrolytic stability; format: physicochemical
[5] = brain homogenate binding; format: in vitro ADME, rat; conditions: fraction unbound
[6] = molecular target: 3A4 (Homo sapiens, UniProt P08684); assay: 3A4 mechanism-based inhibition; format: in vitro ADME
Chain of 3A4 (P08684 whole entry): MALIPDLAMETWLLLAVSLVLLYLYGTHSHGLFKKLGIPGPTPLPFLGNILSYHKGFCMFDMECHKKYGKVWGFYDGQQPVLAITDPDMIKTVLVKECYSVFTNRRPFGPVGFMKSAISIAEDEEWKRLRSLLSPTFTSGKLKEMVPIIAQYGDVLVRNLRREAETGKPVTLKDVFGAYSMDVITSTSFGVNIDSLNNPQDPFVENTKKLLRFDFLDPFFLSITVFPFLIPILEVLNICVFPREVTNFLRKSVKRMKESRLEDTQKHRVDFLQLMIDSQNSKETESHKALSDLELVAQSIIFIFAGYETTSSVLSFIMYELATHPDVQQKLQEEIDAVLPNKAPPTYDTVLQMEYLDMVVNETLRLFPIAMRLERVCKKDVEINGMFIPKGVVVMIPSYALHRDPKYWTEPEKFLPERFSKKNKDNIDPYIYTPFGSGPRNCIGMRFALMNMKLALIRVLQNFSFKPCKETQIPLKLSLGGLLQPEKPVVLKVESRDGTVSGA

[7] = rat IV plasma:brain level (PBL) PK; format: in vivo
[8] = rat IV/PO PK crossover study; format: in vivo
Excerpt: Thus, 19d was a stable chemical entity in vivo. […] Overall, the rat PK and CNS penetration was supportive of in vivo work and progression down the development flow-chart.

[9] = system: rats; assay: rotarod; format: in vivo; conditions: rat, doses up to 10 mg/kg
Procedure: (§2) In order to enable our target validation work, we first profiled PAM 19d in a rat locomotor battery to ensure that pharmacodynamic efficacy was not mistaken for gross effects on locomotion.[20] […] PK was performed in parallel to establish a PK/PD relationship.[24]
On the first day, the animals were placed on the rotarod apparatus which was rotating at a speed of 20 rpm. If the rats fall of the bar, the animals were placed back on the apparatus for a total of 2 min. On the day of testing, adult male rats were pretreated with VU6024578 (1–10 mg/kg) 65 min before being placed on the rotarod apparatus. Testing consisted of accelerating rotarod from 4 to 40 rpm over 5 min. The time and final speed when the rats fall off of the apparatus was recorded.

[10] = PK in parallel to rat locomotor battery; format: in vivo
Procedure: as §2
Figure S2. 19d assessed in rat locomotor battery A: Exposure of 19d in the locomotor battery experiment. […]

[11] = system: rats; assay: adverse events in rats; format: in vivo, rat; conditions: much higher exposures than in dog
[12] = system: Adrenergic alpha 1 (non-selective); assay: Eurofins radioligand binding panel; set-up: species or system rat; conditions: antagonist radioligand
Excerpt: (§3) Table S1. Eurofins Lead Profiling Screen Data
(§4) This is a radioligand binding panel of 80 targets including GPCRs, ion channels, transporters and nuclear hormones. Biochemical assay results are presented as the percent inhibition of specific […]
(§5) Results showing an inhibition or stimulation higher than 50% are considered to represent significant effect and are highlighted […]
(§6) Target / Protein Species % Inhibition at 10 […]

[13] = system: Adrenergic alpha 2 (non-selective); assay: Eurofins radioligand binding panel; set-up: species or system rat; conditions: antagonist radioligand
Excerpt: as §3, §4, §5, §6

[14] = system: BB (non-selective); assay: Eurofins radioligand binding panel; set-up: species or system rat; conditions: agonist radioligand
Excerpt: as §3, §4, §5, §6

[15] = molecular target: T1, CCK2 (CCKB) (Homo sapiens, UniProt P32239); assay: Eurofins radioligand binding panel; conditions: agonist radioligand
T1 construct: Eurofins (panel run as a service)
Excerpt: as §3, §4, §5, §6
(§7) CCK2 (CCKB) (agonist radioligand) human -4

[16] = molecular target: T2, 5-HT6 (Homo sapiens, UniProt P50406); assay: Eurofins radioligand binding panel; conditions: agonist radioligand
T2 construct: Eurofins
T2 sequence (P50406 whole entry): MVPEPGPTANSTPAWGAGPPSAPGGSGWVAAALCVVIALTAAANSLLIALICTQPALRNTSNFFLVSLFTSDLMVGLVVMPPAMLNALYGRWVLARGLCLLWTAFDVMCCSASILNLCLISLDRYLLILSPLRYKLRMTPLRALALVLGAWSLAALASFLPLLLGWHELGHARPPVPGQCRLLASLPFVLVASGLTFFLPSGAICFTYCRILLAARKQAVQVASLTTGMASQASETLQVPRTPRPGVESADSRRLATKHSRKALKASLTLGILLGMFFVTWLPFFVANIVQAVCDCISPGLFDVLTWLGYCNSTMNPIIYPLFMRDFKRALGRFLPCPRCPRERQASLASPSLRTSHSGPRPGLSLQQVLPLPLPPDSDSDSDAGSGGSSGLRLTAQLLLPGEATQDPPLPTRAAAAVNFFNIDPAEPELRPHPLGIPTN
Excerpt: as §3, §4
(§8) Results showing an inhibition or stimulation higher than 50% are considered to represent significant effect and are highlighted

[17] = molecular target: T3, D5 (Homo sapiens, UniProt P21918); assay: Eurofins radioligand binding panel; conditions: antagonist radioligand
T3 construct: Eurofins (panel run as a service)
Excerpt: as §3, §4, §8

[18] = molecular target: T4, EP2 (Homo sapiens, UniProt P43116); assay: Eurofins radioligand binding panel; conditions: agonist radioligand
T4 construct: Eurofins
Excerpt: as §3, §4, §8

[19] = molecular target: T5, ETB (Homo sapiens, UniProt P24530); assay: Eurofins radioligand binding panel; conditions: agonist radioligand
T5 construct: Eurofins (panel run as a service)
T5 sequence (P24530 27-442): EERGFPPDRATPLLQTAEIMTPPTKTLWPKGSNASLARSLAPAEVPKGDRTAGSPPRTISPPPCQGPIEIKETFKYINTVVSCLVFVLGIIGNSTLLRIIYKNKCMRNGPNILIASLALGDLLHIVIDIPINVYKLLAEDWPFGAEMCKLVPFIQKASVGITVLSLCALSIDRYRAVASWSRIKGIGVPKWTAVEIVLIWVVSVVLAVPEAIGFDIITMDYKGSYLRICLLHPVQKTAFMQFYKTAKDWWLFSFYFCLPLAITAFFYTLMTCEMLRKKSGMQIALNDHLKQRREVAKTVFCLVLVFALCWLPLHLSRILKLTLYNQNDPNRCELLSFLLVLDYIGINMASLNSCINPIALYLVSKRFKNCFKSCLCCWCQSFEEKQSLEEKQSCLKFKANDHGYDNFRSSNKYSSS
Excerpt: as §3, §4, §8

[20] = molecular target: T6, M2 (Homo sapiens, UniProt P08172); assay: Eurofins radioligand binding panel; conditions: antagonist radioligand
T6 construct: Eurofins
T6 sequence (P08172 whole entry): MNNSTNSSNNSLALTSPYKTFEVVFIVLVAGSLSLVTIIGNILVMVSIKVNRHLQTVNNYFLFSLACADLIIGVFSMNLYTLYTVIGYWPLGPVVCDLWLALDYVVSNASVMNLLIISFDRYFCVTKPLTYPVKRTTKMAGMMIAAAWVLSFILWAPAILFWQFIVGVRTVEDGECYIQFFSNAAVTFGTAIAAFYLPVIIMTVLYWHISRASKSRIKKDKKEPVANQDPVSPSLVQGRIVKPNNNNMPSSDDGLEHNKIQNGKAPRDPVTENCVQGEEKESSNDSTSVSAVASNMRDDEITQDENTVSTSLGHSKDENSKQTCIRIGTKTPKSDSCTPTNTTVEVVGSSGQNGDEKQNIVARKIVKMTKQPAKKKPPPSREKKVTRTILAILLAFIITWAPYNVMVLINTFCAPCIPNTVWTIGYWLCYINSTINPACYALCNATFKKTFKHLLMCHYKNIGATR
Excerpt: as §3, §4, §8

[21] = molecular target: T7, NK1 (Homo sapiens, UniProt P25103); assay: Eurofins radioligand binding panel; conditions: agonist radioligand
T7 construct: Eurofins
T7 sequence (P25103 whole entry): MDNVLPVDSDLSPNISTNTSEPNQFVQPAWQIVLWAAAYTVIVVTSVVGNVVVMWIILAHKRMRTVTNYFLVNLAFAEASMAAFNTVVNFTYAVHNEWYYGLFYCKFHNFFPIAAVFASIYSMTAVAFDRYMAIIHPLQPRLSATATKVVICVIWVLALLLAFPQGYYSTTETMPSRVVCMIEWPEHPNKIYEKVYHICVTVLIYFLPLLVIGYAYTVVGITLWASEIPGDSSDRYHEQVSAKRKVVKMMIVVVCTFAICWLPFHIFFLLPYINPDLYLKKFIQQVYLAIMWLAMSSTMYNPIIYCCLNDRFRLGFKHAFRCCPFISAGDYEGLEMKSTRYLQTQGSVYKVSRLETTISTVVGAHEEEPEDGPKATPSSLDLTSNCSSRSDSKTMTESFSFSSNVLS
Excerpt: as §3, §4, §8

[22] = molecular target: T8, PPARgamma (Homo sapiens, UniProt P37231); assay: Eurofins radioligand binding panel; conditions: agonist radioligand
T8 construct: Eurofins
Excerpt: as §3, §4, §8

[23] = molecular target: T9, V1a (Homo sapiens, UniProt P37288); assay: Eurofins radioligand binding panel; conditions: agonist radioligand
T9 construct: Eurofins
T9 sequence (P37288 whole entry): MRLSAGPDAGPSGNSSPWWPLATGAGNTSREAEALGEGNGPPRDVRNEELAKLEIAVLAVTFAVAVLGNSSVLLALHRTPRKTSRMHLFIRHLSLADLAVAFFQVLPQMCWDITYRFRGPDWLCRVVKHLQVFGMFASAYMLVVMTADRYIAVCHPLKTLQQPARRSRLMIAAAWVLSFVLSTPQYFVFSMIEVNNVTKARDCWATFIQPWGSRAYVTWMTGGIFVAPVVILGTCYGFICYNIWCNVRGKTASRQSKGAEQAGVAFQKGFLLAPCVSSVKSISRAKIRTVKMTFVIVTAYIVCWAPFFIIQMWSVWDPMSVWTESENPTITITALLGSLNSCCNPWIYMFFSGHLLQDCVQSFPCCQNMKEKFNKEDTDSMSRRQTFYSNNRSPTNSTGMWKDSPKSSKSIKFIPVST
Excerpt: as §3, §4, §8

[24] = molecular target: T10, dopamine transporter (Homo sapiens, UniProt Q01959); assay: Eurofins radioligand binding panel; conditions: antagonist radioligand
T10 construct: Eurofins
Excerpt: as §3, §4, §8

[25] = molecular target: T11, mu (MOP) (Homo sapiens, UniProt P35372); assay: Eurofins radioligand binding panel; conditions: agonist radioligand
T11 construct: Eurofins
Excerpt: as §3, §4, §8

[26] = molecular target: T12, norepinephrine transporter (Homo sapiens, UniProt P23975); assay: Eurofins radioligand binding panel; conditions: antagonist radioligand
T12 construct: Eurofins
Excerpt: as §3, §4, §8

[27] = molecular target: T13, 5-HT1A (Homo sapiens, UniProt P08908); assay: Eurofins radioligand binding panel; conditions: agonist radioligand
T13 construct: Eurofins
T13 sequence (P08908 whole entry): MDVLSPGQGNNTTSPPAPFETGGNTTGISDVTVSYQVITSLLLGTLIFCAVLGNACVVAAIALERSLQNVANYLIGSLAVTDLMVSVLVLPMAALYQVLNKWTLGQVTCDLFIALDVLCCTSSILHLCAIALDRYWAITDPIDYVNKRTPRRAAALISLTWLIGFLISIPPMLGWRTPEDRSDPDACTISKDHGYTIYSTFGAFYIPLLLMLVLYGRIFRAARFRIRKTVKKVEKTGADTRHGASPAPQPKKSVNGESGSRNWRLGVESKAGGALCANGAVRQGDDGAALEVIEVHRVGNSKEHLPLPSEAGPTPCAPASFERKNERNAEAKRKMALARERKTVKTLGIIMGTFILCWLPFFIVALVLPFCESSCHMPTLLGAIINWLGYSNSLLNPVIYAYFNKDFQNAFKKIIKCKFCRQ
Excerpt: as §3, §4, §5
(§9) Target / Protein Species % Inhibition at 10
(§10) Adenosine A1 (antagonist radioligand) human 8
(§11) Adenosine A2A (agonist radioligand) human -1
(§12) Adenosine A3 (agonist radioligand) human 23
(§13) Adrenergic alpha 1 (non-selective) (antagonist radioligand) rat 19
(§14) Adrenergic alpha 2 (non-selective) (antagonist radioligand) rat 1
(§15) Adrenergic beta 1 (agonist radioligand) human 1
(§16) Adrenergic beta 2 (antagonist radioligand) human -1
(§17) AT1 (antagonist radioligand) human -1
(§18) AT2 (agonist radioligand) human 2 […]
(§19) BB (non-selective) (agonist radioligand) rat -20
(§20) B2 (agonist radioligand) human 7
(§21) CGRP (agonist radioligand) human 1
(§22) CB1 (agonist radioligand) human 0
(§23) CCK1 (CCKA) (agonist radioligand) human 7
as §7

[28] = molecular target: T14, EP4 (Homo sapiens, UniProt P35408); assay: Eurofins radioligand binding panel; conditions: agonist radioligand
T14 construct: Eurofins
Excerpt: as §3, §4, §5, §9, §10, §11, §12, §13, §14, §15, §16, §17, §18, §19, §20, §21, §22, §23, §7

[29] = molecular target: 5-HT2B (Homo sapiens, UniProt P41595); assay: Eurofins radioligand binding panel; set-up: Eurofins; conditions: agonist radioligand
Chain of 5-HT2B (P41595 whole entry): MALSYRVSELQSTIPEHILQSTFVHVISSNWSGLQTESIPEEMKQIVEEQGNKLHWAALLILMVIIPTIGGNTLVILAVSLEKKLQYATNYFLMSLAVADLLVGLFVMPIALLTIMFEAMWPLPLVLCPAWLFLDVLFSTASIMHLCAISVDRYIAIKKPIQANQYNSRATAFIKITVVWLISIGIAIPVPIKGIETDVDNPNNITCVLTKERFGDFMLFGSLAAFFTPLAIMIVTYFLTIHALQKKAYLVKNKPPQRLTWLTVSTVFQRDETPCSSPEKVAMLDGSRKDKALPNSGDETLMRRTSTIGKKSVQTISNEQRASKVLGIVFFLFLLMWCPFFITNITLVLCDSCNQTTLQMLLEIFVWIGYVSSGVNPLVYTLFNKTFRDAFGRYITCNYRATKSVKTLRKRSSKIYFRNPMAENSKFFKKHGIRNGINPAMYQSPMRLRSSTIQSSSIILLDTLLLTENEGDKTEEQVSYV
Excerpt: as §3, §4, §8

Chain of rat mGlu1 (P23385 19-1199): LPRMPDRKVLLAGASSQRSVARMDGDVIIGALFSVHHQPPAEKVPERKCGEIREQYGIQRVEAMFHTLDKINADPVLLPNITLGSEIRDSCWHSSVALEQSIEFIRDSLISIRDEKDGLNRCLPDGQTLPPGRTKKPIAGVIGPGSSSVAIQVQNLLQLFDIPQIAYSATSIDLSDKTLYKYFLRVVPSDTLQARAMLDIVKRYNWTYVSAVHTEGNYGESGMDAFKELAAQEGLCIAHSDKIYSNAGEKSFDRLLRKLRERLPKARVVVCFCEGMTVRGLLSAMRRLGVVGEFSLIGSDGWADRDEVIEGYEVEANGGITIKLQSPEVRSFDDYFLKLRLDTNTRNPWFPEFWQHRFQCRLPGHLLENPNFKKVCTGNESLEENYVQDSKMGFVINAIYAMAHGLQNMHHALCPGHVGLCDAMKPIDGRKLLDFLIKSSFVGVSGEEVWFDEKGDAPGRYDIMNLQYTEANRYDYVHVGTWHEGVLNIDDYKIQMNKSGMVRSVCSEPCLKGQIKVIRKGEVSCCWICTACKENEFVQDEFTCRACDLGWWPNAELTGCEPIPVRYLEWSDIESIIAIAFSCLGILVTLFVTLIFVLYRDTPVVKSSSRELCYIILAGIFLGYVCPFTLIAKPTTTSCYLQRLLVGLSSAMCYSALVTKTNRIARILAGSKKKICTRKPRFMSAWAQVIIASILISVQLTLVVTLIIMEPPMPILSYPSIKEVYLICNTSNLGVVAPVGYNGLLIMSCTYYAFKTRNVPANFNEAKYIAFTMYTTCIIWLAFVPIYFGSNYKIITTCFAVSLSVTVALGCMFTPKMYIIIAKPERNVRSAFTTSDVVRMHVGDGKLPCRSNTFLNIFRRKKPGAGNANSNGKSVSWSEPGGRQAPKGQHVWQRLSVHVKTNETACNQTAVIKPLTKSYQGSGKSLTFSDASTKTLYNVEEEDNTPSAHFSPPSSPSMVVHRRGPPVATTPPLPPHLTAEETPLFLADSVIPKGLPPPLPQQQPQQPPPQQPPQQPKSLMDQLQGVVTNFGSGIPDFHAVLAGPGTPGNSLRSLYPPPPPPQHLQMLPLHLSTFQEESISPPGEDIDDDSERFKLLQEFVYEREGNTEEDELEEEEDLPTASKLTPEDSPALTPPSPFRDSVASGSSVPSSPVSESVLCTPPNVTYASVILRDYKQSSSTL

Structure (SMILES): Cn1nc(-c2ccnn2C)cc1CNC(=O)c1cc(-c2ccco2)ccc1Cl [Compound 19d, 2-Chloro-N-((1,2′-dimethyl-1H,2’H-[3,3′-bipyrazol]-5-yl)methyl)-5-(furan-2-yl)benzamide]
- EC50 ([1]; PAM, calcium flux): 0.046 µM
- rat mGlu1 Glumax ([1]; PAM, calcium flux): 124%
- rat mGlu1 pEC50 ([1]; n = 110): 7.39 ± 0.02
- activity against human mGlu2–5,7,8 ([2]; inactive): > 30 µM
- activity on mGlu2–5,7,8, in words ([2]; species not given): inactive
- activity against rat mGlu2–5,7,8 [3]: > 30 µM
- hydrolytic stability ([4]; acidic, pH 2.2): hydrolytically stable
- hydrolytic stability ([4]; neutral, pH 7.4): hydrolytically stable
- rat fubrain [5]: 0.034
- 3A4 mechanism-based inhibition [6]: no 3A4 mechanism-based inhibition
- Kp at 15 min ([7]; Sprague-Dawley, 0.25 mg/kg/compound, rat IV PBL, brain:plasma): 0.99
- Kp uu at 15 min ([7]; Sprague-Dawley, brain, 0.25 mg/kg/compound, rat IV PBL): 0.82
- half-life ([7]; plasma, iv, 1 mg/kg, rat PK PBL experiment): 3.6 h
- clearance ([7]; plasma, iv, 1 mg/kg, rat PK PBL experiment, read-out: CLp): 8.3 mL/min/kg
- MRT ([7]; plasma, iv, 1 mg/kg, rat PK PBL experiment, read-out: MRT): 3.5 h
- Vd ([7]; plasma, iv, 1 mg/kg, rat PK PBL experiment, read-out: Vss): 1.78 L/kg
- Vss ([8]; 1 mg/kg IV): 1.78 L/kg
- plasma clearance (CLp) ([8]; 1 mg/kg IV): 8.3 mL/min/kg
- t1/2 ([8]; 1 mg/kg IV): 3.9 h
- oral bioavailability (%F) ([8]; PO 10% tween 80): 100%
- Cmax ([8]; PO arm): 4150 ng/mL
- Tmax ([8]; PO arm): 2 h
- AUC ([8]; plasma, PO arm): 24600 ng·h/mL
- rotarod [9]: lack of effect
- Kp ([10]; brain, rat locomotor battery PK): ~0.75
- free brain concentration ([10]; rat, 10 mg/kg): 134 nM
- free brain concentration over in vitro EC50 ([10]; rat, 10 mg/kg): ~2.9 fold
- adverse events (AEs) in rats [11]: no AEs
- % Inhibition at 10 µM [12]: 19%
- % Inhibition at 10 µM [13]: 1%
- % Inhibition at 10 µM [14]: -20%
- inhibition at 10 µM [15]: -4%
- inhibition at 10 µM [16]: -7%
- inhibition at 10 µM [17]: -1%
- inhibition at 10 µM [18]: 41%
- inhibition at 10 µM [19]: -27%
- inhibition at 10 µM [20]: 18%
- inhibition at 10 µM [21]: 46%
- inhibition at 10 µM [22]: 2%
- inhibition at 10 µM [23]: 9%
- inhibition at 10 µM [24]: 37%
- inhibition at 10 µM [25]: 14%
- inhibition at 10 µM [26]: 11%
- inhibition at 10 µM [27]: 51%
- inhibition at 10 µM [28]: 62%
- inhibition at 10 µM [29]: 67%
